From patent US12612416B2, “Modulators of cystic fibrosis transmembrane conductance regulator” (VERTEX PHARMACEUTICALS INCORPORATED, priority 2020, dated 2026)

Key:
CFTR = CFTR (Homo sapiens, UniProt P13569); test: standard Ussing Chamber Assay for CFTR potentiator activity; format: cell-based
Procedure: tert-Butyl N-[(6R,12R)-6-benzyloxy-12-methyl-6,15-bis(trifluoromethyl)-13,19-dioxa-3,4,18-triazatricyclo[12.3.1.12,5]nonadeca-1(18),2,4,14,16-pentaen-17-yl]-N-tert-butoxycarbonyl-carbamate (8.6 g, 11.77 mmol) was dissolved in ethanol (172 mL) then the flask was cycled 3 times between vacuum/nitrogen. Treated the mixture with 10% Pd/C (50% water wet, 1.8 g of 5% w/w, 0.8457 mmol) then cycled 3 times between vacuum/nitrogen and 3 times between vacuum/hydrogen and then stirred vigorously under hydrogen (balloon) at room temperature for 18 hours. The mixture was cycled 3 times between vacuum/nitrogen, filtered over Celite, washing with ethanol, and then the filtrate was evaporated to give 7.3 g of tert-butyl N-tert-butoxycarbonyl-N-[(6R,12R)-6-hydroxy-12-methyl-6,15-bis(trifluoromethyl)-13,19-dioxa-3,4,18-triazatricyclo[12.3.1.12,5]nonadeca-1(18),2,4,14,16-pentaen-17-yl]carbamate an off-white solid. 1H NMR and MS confirmed the expected product. CFTR modulating activity was confirmed using a standard Ussing Chamber Assay for CFTR potentiator activity.

[1] = molecular target: T1, CFTR-mediated short-circuit current in F508del/MF-HBE cells (Homo sapiens, UniProt P13569, DEL508-508); test: HBE2 assay: Ussing chamber assay of CFTR-mediated short-circuit currents; format: cell-based; conditions: single fixed concentration 3 μM in combination with 44 nM (6R,12R)-17-amino-12-methyl-6,15-bis(trifluoromethyl)-13,19-dioxa-3,4,18-triazatricyclo[12.3.1.12,5]nonadeca-1(18),2,4,14,16-pentaen-6-ol, 20% human serum
T1 construct: endogenous in cells; host or cells: primary human bronchial epithelial cells from CF subjects (F508del/MF)
T1 sequence (P13569 with tags, fused parts or gaps DEL508-508): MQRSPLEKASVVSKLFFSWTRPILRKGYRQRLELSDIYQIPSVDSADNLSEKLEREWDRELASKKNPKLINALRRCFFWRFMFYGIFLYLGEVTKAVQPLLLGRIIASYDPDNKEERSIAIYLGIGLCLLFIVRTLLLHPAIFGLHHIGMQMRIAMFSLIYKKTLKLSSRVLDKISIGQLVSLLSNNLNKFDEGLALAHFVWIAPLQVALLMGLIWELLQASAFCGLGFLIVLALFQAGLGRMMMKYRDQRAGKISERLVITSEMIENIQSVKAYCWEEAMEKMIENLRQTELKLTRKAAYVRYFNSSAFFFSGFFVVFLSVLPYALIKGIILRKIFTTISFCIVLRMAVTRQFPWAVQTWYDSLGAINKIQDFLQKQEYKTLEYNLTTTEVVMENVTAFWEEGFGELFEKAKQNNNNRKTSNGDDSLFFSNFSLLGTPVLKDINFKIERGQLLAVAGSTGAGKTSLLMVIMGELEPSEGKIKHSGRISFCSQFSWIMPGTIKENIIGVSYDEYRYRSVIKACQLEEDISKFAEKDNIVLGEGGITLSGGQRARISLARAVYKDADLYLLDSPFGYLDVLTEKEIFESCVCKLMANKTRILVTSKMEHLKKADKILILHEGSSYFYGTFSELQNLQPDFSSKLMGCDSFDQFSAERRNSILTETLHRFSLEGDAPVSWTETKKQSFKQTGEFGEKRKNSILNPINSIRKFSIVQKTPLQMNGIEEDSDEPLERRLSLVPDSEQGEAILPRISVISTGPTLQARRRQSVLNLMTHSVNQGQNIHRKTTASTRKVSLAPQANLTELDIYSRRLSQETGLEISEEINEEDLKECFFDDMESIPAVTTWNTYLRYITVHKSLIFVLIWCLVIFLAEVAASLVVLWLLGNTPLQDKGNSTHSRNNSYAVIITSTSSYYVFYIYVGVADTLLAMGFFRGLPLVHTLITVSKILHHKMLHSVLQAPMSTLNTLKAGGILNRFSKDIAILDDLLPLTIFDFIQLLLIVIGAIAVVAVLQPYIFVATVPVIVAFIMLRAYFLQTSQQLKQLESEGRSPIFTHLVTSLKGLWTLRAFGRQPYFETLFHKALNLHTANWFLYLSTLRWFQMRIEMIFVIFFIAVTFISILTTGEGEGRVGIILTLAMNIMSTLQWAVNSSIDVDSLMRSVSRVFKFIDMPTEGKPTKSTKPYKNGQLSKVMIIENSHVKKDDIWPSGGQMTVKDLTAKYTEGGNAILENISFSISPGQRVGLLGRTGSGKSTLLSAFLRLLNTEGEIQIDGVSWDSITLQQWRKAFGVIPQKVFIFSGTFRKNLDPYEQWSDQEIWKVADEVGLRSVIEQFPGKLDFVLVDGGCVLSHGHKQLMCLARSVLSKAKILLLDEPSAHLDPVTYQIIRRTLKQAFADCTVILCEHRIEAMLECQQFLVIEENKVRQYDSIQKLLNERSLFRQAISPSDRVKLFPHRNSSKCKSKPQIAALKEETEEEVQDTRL
Procedure: Ussing chamber experiments were performed using human bronchial epithelial (HBE) cells derived from CF subjects heterozygous for F508del and a minimal function CFTR mutation (F508del/MF-HBE) and cultured as previously described (Neuberger T, Burton B, Clark H, Van Goor F Methods Mol Biol 2011:741:39-54). After four days the apical media was removed, and the cells were grown at an air liquid interface for >14 days prior to use.
To isolate the CFTR-mediated short-circuit (ISC) current, F508del/MF-HBE grown on Costar® Snapwell™ cell culture inserts were mounted in an Ussing chamber and the transepithelial ISC was measured under voltage-clamp recording conditions (Vhold=0 mV) at 37° C. The basolateral solution contained (in mM) 145 NaCl, 0.83K2HPO4, 3.3 KH2PO4, 1.2 MgCl2, 1.2 CaCl2), 10 Glucose, 10 HEPES (pH adjusted to 7.4 with NaOH) and the apical solution contained (in mM) 145 NaGluconate, 1.2 MgCl2, 1.2 CaCl2), 10 glucose, 10 HEPES (pH adjusted to 7.4 with NaOH) and 30 μM amiloride to block the epithelial sodium channel. […] The CFTR-mediated ISC (μA/cm^2) for each condition was determined from the peak forskolin response to the steady-state current following inhibition.
The activity of the CFTR corrector compounds on the CFTR-mediated ISC was determined in Ussing chamber studies as described above. […]

Sequence of CFTR (P13569 whole entry, species assumed): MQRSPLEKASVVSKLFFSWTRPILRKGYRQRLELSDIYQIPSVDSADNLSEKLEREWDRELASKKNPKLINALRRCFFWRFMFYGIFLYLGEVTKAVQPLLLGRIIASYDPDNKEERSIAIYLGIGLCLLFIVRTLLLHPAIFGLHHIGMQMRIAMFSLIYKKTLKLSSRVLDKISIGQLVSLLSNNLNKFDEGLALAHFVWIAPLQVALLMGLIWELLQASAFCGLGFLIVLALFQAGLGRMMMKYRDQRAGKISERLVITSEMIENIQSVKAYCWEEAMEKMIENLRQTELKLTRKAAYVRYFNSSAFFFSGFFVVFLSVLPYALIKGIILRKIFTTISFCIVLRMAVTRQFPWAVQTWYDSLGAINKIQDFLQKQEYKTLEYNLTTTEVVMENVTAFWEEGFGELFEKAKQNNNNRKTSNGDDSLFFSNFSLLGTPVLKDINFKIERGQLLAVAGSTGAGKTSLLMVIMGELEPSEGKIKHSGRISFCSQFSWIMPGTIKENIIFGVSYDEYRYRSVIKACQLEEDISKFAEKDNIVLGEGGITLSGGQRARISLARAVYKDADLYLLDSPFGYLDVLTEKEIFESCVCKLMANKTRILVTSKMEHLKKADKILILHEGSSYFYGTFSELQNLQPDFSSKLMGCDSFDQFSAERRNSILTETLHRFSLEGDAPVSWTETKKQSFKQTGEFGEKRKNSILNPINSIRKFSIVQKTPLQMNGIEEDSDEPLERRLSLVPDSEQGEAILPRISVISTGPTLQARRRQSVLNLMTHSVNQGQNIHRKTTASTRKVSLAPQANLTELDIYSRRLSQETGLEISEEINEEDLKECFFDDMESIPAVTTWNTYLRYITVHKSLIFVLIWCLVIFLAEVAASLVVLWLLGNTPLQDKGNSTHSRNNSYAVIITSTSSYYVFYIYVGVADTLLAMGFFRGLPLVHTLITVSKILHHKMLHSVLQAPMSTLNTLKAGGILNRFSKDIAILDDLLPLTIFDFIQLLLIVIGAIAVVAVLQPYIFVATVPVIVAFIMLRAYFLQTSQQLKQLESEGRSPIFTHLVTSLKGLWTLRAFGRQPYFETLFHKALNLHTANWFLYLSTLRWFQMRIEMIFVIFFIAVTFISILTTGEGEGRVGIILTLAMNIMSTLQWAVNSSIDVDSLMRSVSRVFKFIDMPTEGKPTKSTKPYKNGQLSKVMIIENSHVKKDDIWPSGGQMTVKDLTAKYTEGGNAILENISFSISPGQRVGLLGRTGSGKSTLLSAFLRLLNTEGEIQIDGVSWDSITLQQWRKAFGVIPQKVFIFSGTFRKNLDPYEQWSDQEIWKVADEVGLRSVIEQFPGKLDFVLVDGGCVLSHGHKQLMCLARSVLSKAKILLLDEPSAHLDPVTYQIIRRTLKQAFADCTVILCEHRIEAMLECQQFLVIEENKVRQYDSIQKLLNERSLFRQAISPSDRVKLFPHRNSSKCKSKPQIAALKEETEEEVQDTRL

Row | SMILES | CFTR modulating activity (CFTR potentiator activity) (CFTR) | HBE2 Activity at 3 μM [1]
1 | C[C@@H]1CCCCC[C@](O)(C(F)(F)F)C2=NN=C(O2)c2nc(c(C(F)(F)F)cc2N)O1 [(6R,12R)-17-amino-12-methyl-6,15-bis(trifluoromethyl)-13,19-dioxa-3,4,18-triazatricyclo[12.3.1.12,5]nonadeca-1(18),2,4,14,16-pentaen-6-ol] | confirmed | 
2 | Cc1cccc(C)c1-c1cc2nc(n1)NS(=O)(=O)c1cccc(c1)C(=O)N(Cc1cncc(N(C)C3CCC3)n1)[C@H](CC(C)(C)C)CC2 [Compound 72] |  | +++ (+++ is >60%)
